The values that follow come from patent US20060223846A1, “Aza-bridged-bicyclic amino acid derivatives as alpha4 integrin antagonists” (priority 2005, published 2006).

Each structure is given as a SMILES string.

For test [1], the target named is T1, human α4β7 (Homo sapiens, UniProt P13612+P26010).
T1 construct: expressed in transfected cells
T1 sequence (P13612 34-1032): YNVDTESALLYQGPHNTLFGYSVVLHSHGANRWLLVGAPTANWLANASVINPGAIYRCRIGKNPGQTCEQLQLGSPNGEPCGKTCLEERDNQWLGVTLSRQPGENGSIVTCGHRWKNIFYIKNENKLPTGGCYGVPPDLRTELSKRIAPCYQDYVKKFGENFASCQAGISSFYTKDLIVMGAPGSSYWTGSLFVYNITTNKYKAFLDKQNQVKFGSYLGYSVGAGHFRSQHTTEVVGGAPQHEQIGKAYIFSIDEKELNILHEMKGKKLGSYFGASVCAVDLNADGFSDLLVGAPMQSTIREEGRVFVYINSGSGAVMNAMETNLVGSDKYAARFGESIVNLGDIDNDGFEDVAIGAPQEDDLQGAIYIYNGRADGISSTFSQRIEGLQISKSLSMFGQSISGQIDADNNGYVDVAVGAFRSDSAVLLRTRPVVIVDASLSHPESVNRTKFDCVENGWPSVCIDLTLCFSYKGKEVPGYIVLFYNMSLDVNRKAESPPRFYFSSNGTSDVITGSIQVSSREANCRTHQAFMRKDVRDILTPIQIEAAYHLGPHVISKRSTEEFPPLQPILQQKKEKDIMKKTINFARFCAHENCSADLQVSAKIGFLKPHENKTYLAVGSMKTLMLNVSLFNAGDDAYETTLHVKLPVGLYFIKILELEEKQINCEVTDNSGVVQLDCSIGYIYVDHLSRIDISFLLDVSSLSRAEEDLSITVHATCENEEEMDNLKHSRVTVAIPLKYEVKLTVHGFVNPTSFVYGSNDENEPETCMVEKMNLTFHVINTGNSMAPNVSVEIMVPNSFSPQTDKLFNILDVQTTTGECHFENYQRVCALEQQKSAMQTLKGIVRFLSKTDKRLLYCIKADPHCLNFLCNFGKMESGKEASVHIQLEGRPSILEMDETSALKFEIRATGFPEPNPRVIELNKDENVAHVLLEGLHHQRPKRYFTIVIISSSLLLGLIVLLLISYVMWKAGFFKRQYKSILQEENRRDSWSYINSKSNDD
T1 sequence (P26010 20-798): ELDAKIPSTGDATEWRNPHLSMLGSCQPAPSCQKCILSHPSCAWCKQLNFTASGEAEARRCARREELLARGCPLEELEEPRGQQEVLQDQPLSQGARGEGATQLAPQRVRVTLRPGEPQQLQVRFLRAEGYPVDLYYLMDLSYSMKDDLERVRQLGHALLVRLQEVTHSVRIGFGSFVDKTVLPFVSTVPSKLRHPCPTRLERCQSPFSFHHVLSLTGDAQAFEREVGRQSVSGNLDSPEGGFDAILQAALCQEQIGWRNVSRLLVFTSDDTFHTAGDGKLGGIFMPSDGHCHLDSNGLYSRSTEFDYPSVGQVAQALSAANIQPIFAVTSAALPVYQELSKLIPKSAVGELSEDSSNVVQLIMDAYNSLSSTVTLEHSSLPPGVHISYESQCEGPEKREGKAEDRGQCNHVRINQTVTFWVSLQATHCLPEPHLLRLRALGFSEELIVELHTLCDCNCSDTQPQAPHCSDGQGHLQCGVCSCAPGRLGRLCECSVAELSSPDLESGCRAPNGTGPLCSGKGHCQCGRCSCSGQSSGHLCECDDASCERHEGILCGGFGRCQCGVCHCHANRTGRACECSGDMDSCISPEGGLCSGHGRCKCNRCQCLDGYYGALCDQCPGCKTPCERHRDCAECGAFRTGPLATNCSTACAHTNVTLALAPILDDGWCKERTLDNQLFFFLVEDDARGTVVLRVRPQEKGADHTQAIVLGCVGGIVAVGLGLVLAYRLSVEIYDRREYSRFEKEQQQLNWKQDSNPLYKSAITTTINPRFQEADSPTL
In words: α4β7-K562 Cell Adhesion Assay (α4β7 Mediated Adhesion/VCAM-1). The format is cell-based. The settings on record: K562 cells expressing human α4β7 on recombinant hVCAM-1; read-out: α4β7 IC50. How it is done:
(§1) α4β7-K562 Cell Adhesion Assay (α4β7 Mediated Adhesion/VCAM-1) Immulon 96 well plates (Dynex) were coated with 100 μL recombinant hVCAM-1 at 4.0 μg/mL in 0.05 M NaCO3 buffer pH 9.0 overnight at 4° C. (R&D System). Plates were washed 3 times in PBS with 1% BSA and blocked for 1 h @ room temperature in this buffer. PBS was removed and compounds to be tested (50 μL) were added at 2× concentration. A stable cell line of K562 cells expressing human α4β7, (50 μL at 2×10^6/mL) labeled with 5 μM Calcein AM (Molecular Probes) for 1 h at 37° C., were added to each well and allowed to adhere for 1 h at room temperature. Plates were washed 3× in PBS+1% BSA and cells were lysed for 15 minutes in 100 μL of 1 M Tris pH 8.0 with 1% SDS. The plate was read at 485 nm excitation and 530 nm emission.

In test [2] the target is α4β1 (Homo sapiens, UniProt P05556+P13612). The test can be described thus: Ramos Cell Adhesion Assay (α4β1 Mediated Adhesion/VCAM-1). The test is classed as cell-based. Further details: Ramos cells, (50 μL at 2×10^6/mL) labeled with 5 μM Calcein AM; endogenous in cells; host or cells: Ramos cells. Particulars: Ramos cells on recombinant hVCAM-1; read-out: α4β1 IC50. The method, then:
as §1, with “Ramos” for “α4β7-K562”, “α4β1” for “(α4β7”, “[…]” for “96”, “Systems).” for “System).”, “Ramos cells,” for “A stable cell line of K562 cells expressing human α4β7,”

Sequence of α4β1 (P05556 21-798, one chain of several): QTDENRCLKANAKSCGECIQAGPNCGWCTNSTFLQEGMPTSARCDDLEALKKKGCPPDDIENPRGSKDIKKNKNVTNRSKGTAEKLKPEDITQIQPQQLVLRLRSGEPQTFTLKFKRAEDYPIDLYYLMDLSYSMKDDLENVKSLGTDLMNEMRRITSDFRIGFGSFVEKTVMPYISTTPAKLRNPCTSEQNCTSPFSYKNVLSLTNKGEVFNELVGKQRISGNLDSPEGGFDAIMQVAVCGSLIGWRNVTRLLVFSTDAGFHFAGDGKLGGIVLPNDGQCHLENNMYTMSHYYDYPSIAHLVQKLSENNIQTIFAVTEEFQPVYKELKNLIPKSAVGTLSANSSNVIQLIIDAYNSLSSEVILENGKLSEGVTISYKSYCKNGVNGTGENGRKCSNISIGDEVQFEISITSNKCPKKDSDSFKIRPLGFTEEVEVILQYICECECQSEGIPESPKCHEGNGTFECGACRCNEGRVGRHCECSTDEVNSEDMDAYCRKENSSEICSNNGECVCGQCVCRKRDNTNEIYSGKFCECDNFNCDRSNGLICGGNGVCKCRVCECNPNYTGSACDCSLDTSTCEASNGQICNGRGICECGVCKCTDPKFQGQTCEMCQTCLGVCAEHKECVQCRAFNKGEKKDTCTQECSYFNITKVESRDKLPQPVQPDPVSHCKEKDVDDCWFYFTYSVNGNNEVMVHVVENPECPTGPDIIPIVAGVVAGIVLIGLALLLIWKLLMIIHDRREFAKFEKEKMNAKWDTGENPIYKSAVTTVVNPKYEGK

For orientation: IC50 means the concentration needed to halve the response being measured. With `COc1ccccc1C=CC(=O)N1C2CCC(CC2)C1C(=O)NC(Cc1ccc(NC(=O)c2c(Cl)cncc2Cl)cc1)C(=O)O` (stereo not drawn) [Cpd 45], the IC50 in test [1] was 0.036 µM; in test [2] it was 0.003 µM.
`O=C(Nc1ccc(CC(NC(=O)C2C3CCC(CC3)N2C(=O)Cc2cccs2)C(=O)O)cc1)c1c(Cl)cncc1Cl` (stereo not drawn) [Cpd 32]: the IC50 in test [1] was 0.03 µM; in test [2], 0.012 µM.
`O=C(Nc1ccc(CC(NC(=O)C2C3CCC(CC3)N2C(=O)CC2CCOCC2)C(=O)O)cc1)c1c(Cl)cncc1Cl` (stereo not drawn) [Cpd 41]: the results for the IC50 in test [1] and in test [2] were 0.03 µM and 0.011 µM, respectively.
Consider `O=C(Nc1ccc(CC(NC(=O)C2C3CCC(CC3)N2C(=O)Cc2csc3ccccc23)C(=O)O)cc1)c1c(Cl)cncc1Cl` (stereo not drawn) [Cpd 36], for which the IC50 is 0.066 µM in test [1] and 0.055 µM in test [2].
With `O=C(Nc1ccc(CC(NC(=O)C2C3CCC(CC3)N2C(=O)CCc2cccnc2)C(=O)O)cc1)c1c(Cl)cncc1Cl` (stereo not drawn) [Cpd 65], the IC50 is 0.01 µM in test [1] and 0.003 µM in test [2].
`O=C(Nc1ccc(CC(NC(=O)C2C3CCC(CC3)N2Cc2ccc(Cl)s2)C(=O)O)cc1)c1c(Cl)cncc1Cl` (stereo not drawn) [Cpd 19]: the IC50 in test [1] was greater than 5 µM; in test [2], 2.56 µM.
`COc1cc(CC(=O)N2C3CCC(CC3)C2C(=O)NC(Cc2ccc(NC(=O)c3c(Cl)cncc3Cl)cc2)C(=O)O)cc(OC)c1` (stereo not drawn) [Cpd 31]: the values for the IC50 in test [1] and in test [2] were 0.106 µM and 0.008 µM, respectively.
Take `COc1ccc(CC(=O)N2C3CCC(CC3)C2C(=O)NC(Cc2ccc(NC(=O)c3c(Cl)cncc3Cl)cc2)C(=O)O)cc1` (stereo not drawn) [Cpd 30]: the results for the IC50 in test [1] and in test [2] were 0.071 µM and 0.115 µM, respectively.
In the case of `O=C(Nc1ccc(CC(NC(=O)C2C3CCC(CC3)N2C(=O)Cc2ccc3ccccc3c2)C(=O)O)cc1)c1c(Cl)cncc1Cl` (stereo not drawn) [Cpd 7], the figures for the IC50 in test [1] and in test [2] were 0.044 µM and 0.063 µM, respectively.
For the molecule `COc1cccc(CCC(=O)N2C3CCC(CC3)C2C(=O)NC(Cc2ccc(NC(=O)c3c(Cl)cncc3Cl)cc2)C(=O)O)c1` (stereo not drawn) [Cpd 49], the results for the IC50 in test [1] and in test [2] were 0.009 µM and 0.001 µM, respectively.
As to `O=C(Nc1ccc(CC(NC(=O)C2C3CCC(CC3)N2C(=O)Nc2ccccc2Cl)C(=O)O)cc1)c1c(Cl)cncc1Cl` (stereo not drawn) [Cpd 22], the IC50 in test [1] is 0.67 µM; in test [2], 0.38 µM.
On the same counts, the results for `O=C(Nc1ccc(CC(NC(=O)C2C3CCC(CC3)N2C(=O)CCc2ccc(C(F)(F)F)cc2)C(=O)O)cc1)c1c(Cl)cncc1Cl` (stereo not drawn) [Cpd 50] are 0.075 µM and 0.006 µM.
For `O=C(Nc1ccc(CC(NC(=O)C2C3CCC(CC3)N2C(=O)CCc2ccccc2F)C(=O)O)cc1)c1c(Cl)cncc1Cl` (stereo not drawn) [Cpd 52], in that order: 0.046 µM and 0.003 µM.
Turning to `O=C(Nc1ccc(CC(NC(=O)C2C3CCC(CC3)N2C(=O)Nc2ccccc2)C(=O)O)cc1)c1c(Cl)cncc1Cl` (stereo not drawn) [Cpd 20], the concentration for half-maximal inhibition (IC50) in test [1] was 0.287 µM; in test [2], 0.259 µM.
Turning to `Cc1ccc(NC(=O)N2C3CCC(CC3)[C@H]2C(=O)N[C@@H](Cc2ccc(NC(=O)c3c(Cl)cncc3Cl)cc2)C(=O)O)cc1` [Cpd 21, 3-{4-[(3,5-dichloro-pyridine-4-carbonyl)-amino]-phenyl}-2-[(2-p-tolylcarbamoyl-2-aza-bicyclo[2.2.2]octane-3-carbonyl)-amino]-propionic acid], the IC50 was 0.124 µM in test [1] and 0.585 µM in test [2].
For `CC(C)(C)CC(=O)N1C2CCC(CC2)C1C(=O)NC(Cc1ccc(NC(=O)c2c(Cl)cncc2Cl)cc1)C(=O)O` (single isomer, unassigned) [Cpd 34], in that order: 0.047 µM and 0.014 µM.
`O=C(Nc1ccc(CC(NC(=O)C2C3CCC(CC3)N2Cc2ccccc2)C(=O)O)cc1)c1c(Cl)cncc1Cl` (stereo not drawn) [Cpd 18]: the IC50 in test [1] is 0.309 µM; in test [2] it was 0.543 µM.
With `O=C(Nc1ccc(CC(NC(=O)C2C3CCC(CC3)N2C(=O)CCc2cc(C(F)(F)F)cc(C(F)(F)F)c2)C(=O)O)cc1)c1c(Cl)cncc1Cl` (stereo not drawn) [Cpd 55], the figures for the IC50 in test [1] and in test [2] were 0.181 µM and 0.072 µM, respectively.
On the same counts, the results for `O=C(Nc1ccc(CC(NC(=O)C2C3CCC(CC3)N2C(=O)Cc2csc3ccccc23)C(=O)O)cc1)c1c(Cl)cncc1Cl` (stereo not drawn) [Cpd 62] are 0.565 µM and 0.292 µM.
In the case of `O=C(Nc1ccc(CC(NC(=O)C2C3CCC(CC3)N2C(=O)Cc2ccsc2)C(=O)O)cc1)c1c(Cl)cncc1Cl` (mixture of isomers) [Cpd 60], the IC50 was 0.233 µM in test [1] and 0.156 µM in test [2].
On the same counts, the results for `O=C(Nc1ccc(CC(NC(=O)C2C3CCC(CC3)N2C(=O)Nc2ccc(Cl)cc2)C(=O)O)cc1)c1c(Cl)cncc1Cl` (stereo not drawn) [Cpd 24] are 0.743 µM and 0.591 µM.
Consider `O=C(Nc1ccc(CC(NC(=O)C2C3CCC(CC3)N2C(=O)Cc2ccccc2C(F)(F)F)C(=O)O)cc1)c1c(Cl)cncc1Cl` (stereo not drawn) [Cpd 2], for which the figures for the IC50 in test [1] and in test [2] were 0.316 µM and 0.164 µM, respectively.
On the same counts, the results for `CCCCCC12CCC(C(=O)N3C4CCC(CC4)C3C(=O)NC(Cc3ccc(NC(=O)c4c(Cl)cncc4Cl)cc3)C(=O)O)(CC1)CC2` (mixture of isomers) [Cpd 13] are greater than 5 µM and greater than 5 µM.
With `O=C(Nc1ccc(CC(NC(=O)C2C3CCC(CC3)N2C(=O)CCCC2CCCCC2)C(=O)O)cc1)c1c(Cl)cncc1Cl` (stereo not drawn) [Cpd 37], the IC50 in test [1] is 0.254 µM; in test [2], 0.041 µM.
For `Cc1ccnn1CC(=O)N1C2CCC(CC2)C1C(=O)NC(Cc1ccc(NC(=O)c2c(Cl)cncc2Cl)cc1)C(=O)O` (stereo not drawn) [Cpd 15], in that order: 0.039 µM and 0.069 µM.
As to `COc1cccc(CC(=O)N2C3CCC(CC3)C2C(=O)NC(Cc2ccc(NC(=O)c3c(Cl)cncc3Cl)cc2)C(=O)O)c1` (stereo not drawn) [Cpd 1], the values for the IC50 in test [1] and in test [2] were 0.093 µM and 0.156 µM, respectively.
Regarding `O=C(Nc1ccc(CC(NC(=O)C2C3CCC(CC3)N2C(=O)c2ccccc2Oc2ccccc2)C(=O)O)cc1)c1c(Cl)cncc1Cl` (stereo not drawn) [Cpd 63], the IC50 is 0.066 µM in test [1] and 0.055 µM in test [2].
